Test results reported in US8653304B2, “2,3-dihydro-1H-indene-2-yl urea derivative and pharmaceutical application of same” (Toray Industries, Inc., priority 2009, dated 2014).

Legend:
[1] = tested on: colonic disorders in TNBS-induced colitis model; assay: Colonic disorders in TNBS-induced colitis model; assay type: in vivo; details: Wistar rat, oral 3 mg/kg once on TNBS day then twice a day for 4 days, colon 5 days after TNBS
Description: (§1) The action of Compound (I) on colonic disorders in inflammatory bowel disease models was studied. As the inflammatory bowel disease models, models partially modified from a TNBS-induced colitis model and a DSS-induced chronic colitis model described in documents (Gastroenterology, 1989, Vol. 96, pp. 29-36 and Am. J. Physiol. Gastrointest. Liver Physiol., 2004, Vol. 287, pp. G115-124) were used.
To each Slc:Wistar rat (male, 12-week old, Japan SLC, Inc.), TNBS (Wako Pure Chemical Industries, Ltd.) dissolved in ethanol was rectally administered under anesthesia, and the TNBS solution was held in the rectum for 1 hour to produce the colitis model. These rats had been fasted from 2 days before the TNBS administration to the day of the TNBS administration. Five days after the TNBS administration, the colon was isolated from the each rat, and the macroscopic damage score (which is a total of adhesion score, diarrhea score and ulcer score) was recorded as an index of damage in the colon. The macroscopic damage score was calculated based on the scores of Dubigeon et al. (Eur. J. Pharmacol., 2001, Vol. 431, pp. 103-110) and the scores of Venkova et al. (J. Pharmacol. Exp. Ther., 2004, Vol. 308, pp. 206-213). […]

human p38 MAPK α = human p38 MAPK α (Homo sapiens (Human), UniProt Q16539); assay: Evaluation of p38 MAPK inhibitory activity (Alpha Screen, ATF2 phosphorylation); assay type: biochemical; details: p38α/SAPK2a 1.5 nM, ATP 100 μM, biotinylated ATF2 30 nM
human p38 MAPK α, sequence (Q16539 whole entry): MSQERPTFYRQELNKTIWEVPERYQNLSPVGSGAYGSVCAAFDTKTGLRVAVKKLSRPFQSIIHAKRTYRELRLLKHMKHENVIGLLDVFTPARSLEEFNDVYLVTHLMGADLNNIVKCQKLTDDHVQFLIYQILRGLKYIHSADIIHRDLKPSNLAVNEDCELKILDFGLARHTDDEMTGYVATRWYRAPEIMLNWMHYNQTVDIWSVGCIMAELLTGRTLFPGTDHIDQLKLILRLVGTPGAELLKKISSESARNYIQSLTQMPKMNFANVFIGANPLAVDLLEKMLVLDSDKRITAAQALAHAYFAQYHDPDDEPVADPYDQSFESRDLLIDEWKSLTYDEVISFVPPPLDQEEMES
Protocol: Using human p38 MAPK α, the p38 MAPK inhibitory activity of Compound (I) was studied by a method partially modified from the method described in Current Medicinal Chemistry (2004, No. 11, pp. 721-730).
A solution of each test compound solution in 100% DMSO and a p38α/SAPK2a solution (Final Concentration: 1.5 nM) (Invitrogen) were added to a 384-well plate, and then the plate was incubated at room temperature in a dark place for 1 hour. Thereafter, ATP (Final Concentration: 100 μM), which is a phosphate donor, and biotinylated ATF2 (Final Concentration: 30 nM) (upstate), which is a substrate, were added, and the resulting mixture was allowed to react at room temperature in a dark place for 1 hour (the final concentration of DMSO was 0.25%). After the reaction, an anti-phosphorylated ATF2 antibody (Final Concentration: 1 nM) (Cell Signaling), anti-IgG acceptor beads (Final Concentration: 20 μg/mL) (PerkinElmer) and streptavidin donor beads (Final Concentration: 20 μg/mL) (PerkinElmer) were added, and the resultant was incubated at room temperature in a dark place for 1 hour. Using a microplate analyzer (Fusion-α, Packard) in Alpha Screen method (Amplified Luminescent Proximity Homogeneous Assay), the light emission was detected. The IC50 value of each compound was calculated by sigmoidal dose-response regression using Prism 4.02 (GraphPad Software, Inc.).

[2] = tested on: colonic disorders in DSS-induced chronic colitis model; assay: Colonic disorders in DSS-induced chronic colitis model; assay type: in vivo; details: BALB/c mouse, oral 10 mg/kg once Day 27, twice a day Day 28-31; scores Day 28-32
Description: as §1
To each BALB/cCrSlc mouse (female, 9-week old, Japan SLC, Inc.), DSS (Molecular Weight: 36-50 kDa; MP Biomedicals) dissolved in sterile ultrapure water was administered via free drinking for 5 days from the day of the start of the administration via drinking water (this day was considered as Day 0 after the start of the administration via drinking water), and then switched to administration of sterile ultrapure water via free drinking for 5 days. This cycle was repeated again, and DSS was further administered via free drinking for another 7 days to produce the colitis model. As an index of colitis symptoms, stool consistency scores were used. The stool consistency scores were based on the following criteria: normal stool was defined as score 0; loose stool was defined as score 2; and diarrhea was defined as score 4. […]

[3] = tested on: skin swelling response in type IV allergic dermatitis model; assay: Skin swelling response in type IV allergic dermatitis model; assay type: in vivo; details: BALB/c mouse, 24 hours after induction
Protocol: (§2) The action of Compound (I) on skin swelling response in mouse allergic dermatitis models was studied. As the allergic dermatitis models, models partially modified from a type I allergic dermatitis model and a type IV allergic dermatitis model described in documents (Inflamm. Res., 1998, Vol. 47, pp. 506-511 and Int. Arch. Allergy. Appl. Immunol., 1990, Vol. 92, pp. 356-360) were used.
To the back of each BALB/c mouse (female, 7-week old, Charles River Laboratories Japan, Inc.), 25 μL of 0.5% DNFB solution dissolved in acetone:olive oil (4:1) was applied. On the next day, the same operations were repeated to actively sensitize the mouse. Four days after the sensitization, 20 μL of 0.2% DNFB solution dissolved in acetone:olive oil (4:1) was applied to the auricle of the sensitized mouse to induce inflammation. Twenty four hours after the induction, the thickness of the auricle was measured using a Digimatic Indicator (Mitutoyo). Each test compound was dissolved in ethanol and 20 μL of 0.5 w/v % solution was applied to the auricle at 1 hour before the induction; or each test compound was suspended in 0.5% methylcellulose (Wako Pure Chemical Industries, Ltd.) and the resulting solution was orally administered at 30 mg/kg at 1 hour before the induction. The swelling ratio of the auricle was calculated according to the following equation: Auricular Swelling Ratio(%)=(A−B)/B×100

TNFα production [4] = assay: Cytokine production suppressing activity using human whole blood (LPS stimulation); assay type: cell-based; details: LPS 200 ng/mL, 37° C., 5 hours
Protocol: Using human whole blood, the inhibitory action of Compound (I) on the TNFα production by LPS stimulation was studied by a method partially modified from the method described in Journal of Medicinal Chemistry (2003, Vol. 46, pp. 4676-4686).
A solution of each test compound in 100% DMSO and human blood were mixed in a 96-well flat-bottom plate. Thereafter, LPS (Final Concentration: 200 ng/mL) was added, and the resulting mixture was allowed to react at 37° C. for 5 hours (the final concentration of DMSO was 0.2%). After the reaction, the resultant was centrifuged for 20 minutes at room temperature, and the supernatant was collected. For the measurement of the TNFα amount in the supernatant, a human cytokine kit (CIS bio international) was used. As a comparative control compound, Comparative Compound 2 was used.

[5] = tested on: skin swelling response in type I allergic dermatitis model; assay: Skin swelling response in type I allergic dermatitis model; assay type: in vivo; details: BALB/c mouse, 20 μL of 0.5 w/v % solution applied to auricle 1 hour before induction
Description: as §2
To each BALB/c mouse (female, 7-week old, Charles River Laboratories Japan, Inc.), mouse IgE anti-DNP antibody (0.05 mg/body, […] CORPORATION) was intravenously administered to passively sensitize the mouse. Twenty four hours after the sensitization, 20 μL of 0.38% DNFB (SIGMA) dissolved in acetone:olive oil (4:1) was applied to the auricle of the mouse to induce inflammation. From after the induction to 24 hours, the thickness of the auricle was measured with time using a Digimatic Indicator (Mitutoyo). Each test compound was dissolved in ethanol, and 20 μL of 0.5 w/v % solution was applied to the auricle at 1 hour before the induction.
The swelling ratio of the auricle was calculated according to the following equation. […] Auricular Swelling Ratio(%)=(A−B)/B×100

[6] = Metabolic stability in human CYP (human liver microsomes); assay type: in vitro ADME; details: human liver microsomes 0.5 mg/mL, NADPH, 37° C., comparative control compounds 5 μM
Protocol: Each test compound was mixed at a concentration of 2 μM with a phosphate buffer solution containing Human liver microsomes (Xenotech) in an amount of 0.5 mg/mL. Thereafter, NADPH was added thereto, and the obtained mixture was allowed to react at 37° C. for up to 30 minutes. The reaction was terminated by adding acetonitrile, and then the resultant was centrifuged for 10 minutes at 4° C. to collect a supernatant. The supernatant was pretreated by methanol extraction method, and the concentration of the compound was analyzed by LC/MS/MS (ESI positive mode). The compound remaining rate was calculated from the obtained concentration of the compound.

TNFα production [7] = assay: Mouse LPS-induced cytokine production model; assay type: in vivo; details: BALB/c mouse, 50 mg/kg oral 30 minutes before LPS 1 mg/kg i.p., serum 60 minutes after LPS
Protocol: The action of Compound (I) on the TNFα production induced by LPS administration in a mouse was studied by a method partially modified from the method described in Journal of Immunology (1992, Vol. 148, pp. 1890-1897).
To each BALB/c mouse (male, 7 to 9-week old, Charles River Laboratories Japan, Inc.), LPS (0111:B4, SIGMA) was intraperitoneally administered at a dose of 1 mg/kg. Sixty minutes after the LPS administration, blood was collected from the abdominal vena cava under anesthesia and centrifuged for 15 minutes at 4° C. to obtain a serum. For the measurement of TNF-α in the serum, ELISA Development System (R&D Systems) was used. Each test compound was dissolved in DMSO (Final Concentration: 2%), and then the obtained solution was dissolved in a 27% aqueous solution of 2-hydroxypropyl-β-cyclodextrin (hereinafter referred to as “HP-β-CD”; Nihon Shokuhin Kako Co., Ltd.). Thirty minutes before the LPS administration, the resulting solution was orally administered at 50 mg/kg.

[8] = tested on: hyperalgesia in Bennett model; assay: Hyperalgesia in neuropathic pain model (Bennett model), plantar test; assay type: in vivo; details: SD rat, Bennett model day 14, oral 100 mg/kg, 90 minutes after administration; FIG. 2
Description: The action of Compound (I) on hyperalgesia in pain models was studied. As the pain models, models partially modified from an inflammatory pain model (a carrageenin paw edema pain model) and neuropathic pain models (Bennett model and Chung model) described in documents (Anesth. Analg., 2009, Vol. 108, pp. 1680-1687; Pain, 1988, Vol. 33, pp. 87-107; and Pain, 1992, Vol. 50, pp. 355-363) were used.
The Bennett model was produced by lightly ligating the sciatic nerve in the left thigh of each Crl:CD (SD) rat (male, 6-week old, Charles River Laboratories Japan, Inc.) at 4 points with chromic catgut (4-0). Fourteen days after the Bennett model was produced, each test compound was orally administered, and plantar test was performed 90 minutes after the administration. The plantar test was carried out by measuring the pain threshold (sec) of the left footpad (model foot) using a plantar thermal stimulation device (Plantar test 7370, Ugo Basile) wherein the thermal stimulus intensity was set to 60. Each test compound was suspended in 0.5 w/v % methylcellulose (Wako Pure Chemical Industries, Ltd.) and the obtained solution was orally administered. Compound 46b described in the Examples was administered at a dose of 100 mg/kg, and gabapentin (Toronto Research Chemicals), which is an anticonvulsant, was administered as a comparative control agent at a dose of 100 mg/kg.

## COc1c(NC(=O)N[C@H]2Cc3c(F)cccc3[C@H]2O)cc(C(C)(C)C)cc1[C@@H](O)C(F)(F)F (single isomer, unassigned) [Compound 50b]
[1]
  macroscopic damage score: 5.2±1.1
Human p38 MAPK α
  IC50: 35 nM
[2]
  stool consistency score (total): 6.5±0.6
[3]; 30 mg/kg oral 1 hour before induction
  suppression ratio of auricular swelling, oral administration: 54.4%
[3]; 20 μL of 0.5 w/v % solution on auricle 1 hour before induction
  suppression ratio of auricular swelling, auricular application: 48.0%
TNFα production [4]
  IC50: 46 nM
[5]
  suppression ratio on immediate response (auricular swelling AUC 0-4 hours): 33.4%
  suppression ratio on late response (auricular swelling AUC 5-10 hours): 50.2%

## COc1c(NC(=O)N[C@@H]2Cc3ccccc3[C@@H]2O)cc(C(C)(C)C)cc1C(C)(C)C#N [Comparative Compound 3, 1-(5-tert-butyl-3-(2-cyanopropan-2-yl)-2-methoxyphenyl)-3-((1S,2R)-1-hydroxy-2,3-dihydro-1H-indene-2-yl)urea, reference compound]
[6]
  microsomal CLint at 5 μM: 450 µL/min/mg
TNFα production [7]
  Suppression Ratio of TNFα production: 17.0%

## NCC1(CC(=O)O)CCCCC1 [gabapentin, reference compound]
[8]
  pain threshold (sec), plantar test, compared to solvent-administered group: significant difference
